Measured values reported in patent US6753330B2, “Solid dispersion composition” (Kowa Co., Ltd., priority 2002, dated 2004).

Legend:
[1] = Solubility of compound 1 in water; type: physicochemical
[2] = system: production of interleukin 1β; conditions: disclosed in JP Laid-Open No. 2000-198776; cited from earlier work

For `CSc1ccc(-c2nn(Cc3ccccc3)c(=O)cc2-c2ccc(Cl)cc2)cc1` [compound 1, 2-benzyl-5-(4-chlorophenyl)-6-[4-(methylthio)phenyl]-2H-pyridazin-3-one], which “solubility in water (in words)” value [1] is on record?
The value was “exceptionally poor solubility in water”.

What about the “effect for suppressing production of interleukin 1β (in words)” value [2] of the same compound?
Its value is “excellent effect”.
